Columns and labels:
Type in all cases: cell-based, human
[1] = test system: cholesterol flux; assay: Cholesterol flux in treated cells; details: treatment with Rvx-208
Method: FIG. 7. A) Proliferation curve in a viability assay carried out by means of XCELLigence technology. Growth of DLD1 cells treated with DMSO as the drug carrier and with Rvx-208 (30 μM). The significant differences existing in the slope of the graph, and therefore in the growth dynamics of the treated cells are shown in the right panel (****p-value<0.0001). B) Migration and invasion assays. The method followed was the same as the one described in FIG. 2 (*p-value=0.0407; ****p-value<0.0001). C) Expression levels of proteins E-cadherin and Vimentin in the presence and absence of Rvx-208. Analysis performed by means of quantitative PCR. The relative expression levels normalized with respect to the untreated control are shown. D) ABCA1, ApoA1, caveolin-1, and α-tubulin immunodetection by means of Western blot. α-tubulin acts as load control. The results of the cells treated with Rvx-208 (30 μM) or with the DMSO carrier are shown. E) Cholesterol flux in cells treated with Rvx-208. The inventors were able to confirm said results based on the treatment of DLD1 cells expressing ABCA1 with RVX-208 under the conditions already described in detail in Example 3. […] The levels of caveolin-1, a protein whose increased levels have been associated with increases in cell migration and invasion, were also analyzed in this experiment.

[2] = test system: DLD1 cells; assay: Invasion assay (Corning BioCoat Matrigel plates)
Method: (§1) Cell viability and proliferation assays were carried out by means of XCELLigence technology (ACEA Biosciences, Inc.) following the manufacturer's indications. Migration and invasion assays were carried out in Corning® BioCoat™ Control plates (#354578) and Corning® BioCoat™ Matrigel plates (#354480), respectively, following the manufacturer's indications. For the rescue assays, the cells were treated for 72 hours with 30 μM apabetalone (RVX-208; Biovision). Antibodies: ABCA1 (Ab18180, Abcam. 1:500); caveolin-1 (Ab2910, Abcam. 1:1000); α-tubulin (T9026, Sigma 1:1000). The DLD1 cells correspond to a human colorectal cancer-derived adherent epithelial cell line (ATCC® CCL-221™). The stable cell lines capable of overexpressing ABCA1 were obtained by means of transduction with genetically modified lentivirus.
(§2) Following the same treatment regimen, the inventors carried out migration and invasion assays.
(§3) The same assays were repeated by replacing ApoA1 with a treatment with RVX-208. In this case, DLD1 cells were pre-treated for 72 hours before the start of the experiment with RVX-208 at a concentration of 30 μm and were subjected to a treatment with 15 μM of RVX-208 during the development of the experiments.
(§4) For the purpose of confirming that the effects of RVX-208 in cell phenotype recovery were due to the increase in ApoA-1 expression, the inventors inhibited the expression of said protein by means of transfection of a complementary small RNA, ShApoA1 (FIG. 9). Twenty-four hours after transfection with ShApoA1 expression vector, the inventors started treatment with 30 μM of RVX-208. Cell viability and proliferation in DLD1 cells (D_NoORF) and D1D1 cell lines expressing increased ApoA1 levels (D_ApoA1 ) were analyzed with the xCELLigence system.

[3] = test system: DLD1 cells; assay: Cell viability and proliferation assay (XCELLigence)
Method: as §1, §2, §3, §4

[4] = test system: DLD1_ABCA1 cells; assay: as above; details: RVX-208 30 μm 72 hours then 15 μM; DLD1 cells overexpressing ABCA1
Method: FIG. 6. A) Proliferation curve in a viability assay carried out by means of XCELLigence technology. The results for the stable cell line overexpressing ABCA1 in the absence and presence of ApoA1 are shown. The cells were treated for 72 hours before the experiment with 40 μg/ml of ApoA1 and with a concentration of 20 μg/ml during acquisition. B) Migration and invasion assays. The method followed was the same as the one described in FIG. 1. (**p-value=0.003; ****p-value<0.0001). C) ABCA1 messenger RNA level (left panel) and ABCA1 protein level (right panel) in the presence and absence of treatment with ApoA1. Results are shown both for the control cells and for those cells overexpressing the transporter.
Cell viability and proliferation assays were carried out by means of XCELLigence technology (ACEA Biosciences, Inc.) following the manufacturer's indications. Migration and invasion assays were carried out in Corning® BioCoat™ Control plates (#354578) and Corning® BioCoat™ Matrigel plates (#354480), respectively, following the manufacturer's indications. […]
The inventors were able to confirm said results based on the treatment of DLD1 cells expressing ABCA1 with RVX-208 under the conditions already described in detail in Example 3. […] The levels of caveolin-1, a protein whose increased levels have been associated with increases in cell migration and invasion, were also analyzed in this experiment.

**Q.** For `COc1cc(OC)c2c(=O)[nH]c(-c3cc(C)c(OCCO)c(C)c3)nc2c1` [RVX-208, 2-(4-(2-hydroxyethoxy)-3,5-dimethylphenyl)-5,7-dimethoxyquinazolin-4(3H)-one], which cholesterol flux ([1]; cells overexpressing ABCA1) is on record?
**A.** The cholesterol flux was “decreases significantly”.

**Q.** And the cholesterol flux ([1]; control cells)?
**A.** Its cholesterol flux is “decreases significantly”.

**Q.** And the invasive capacity ([2]; RVX-208 30 μm 72 hours then 15 μM, DLD1 cells)?
**A.** Its invasive capacity is “significant decreases the migratory and invasive capacity”.

**Q.** And the “effectiveness of treatment in terms of a decrease in cell invasion capacities” value ([2]; Rvx-208 with ApoA1 silenced by shApoA1, control cells)?
**A.** Its value is “reduces the effectiveness of treatment”.

**Q.** What about the proliferation indices ([3]; 30 μM RVX-208, ApoA1 expression not inhibited (Scr+Rvx-208), DLD1 cells (D_NoORF)) of the same compound?
**A.** The proliferation indices was “significantly lower”.

**Q.** And the proliferative capacity ([3]; RVX-208 pre-treatment 72 hours at 30 μm, 15 μM during experiment, DLD1 cells)?
**A.** The proliferative capacity was “significant decrease in proliferative capacity”.

**Q.** And the proliferative capacity [4]?
**A.** The proliferative capacity was “significant decrease in proliferative capacity”.

— patent US20200378993A1, “MEDICAL USES OF APOLIPOPROTEIN A AND ACTIVATORS THEREOF” (FUNDACIÓN IMDEA ALIMENTACIÓN, priority 2017, published 2020)
